According to ChEMBL document CHEMBL5550122, “Photodynamic anticancer activity evaluation of novel 5-aminolevulinic acid and 3-hydroxypyridinone conjugates” (Bioorg Med Chem, 2024):
Calls of active or inactive are those of the source. No cut-off for these calls is given here.

Legend:
[1] = test system: HeLa; assay: Cytotoxicity against human HeLa cells assessed as reduction in cell viability preincubated for 4 hrs under dark condition in presence of 5-aminolevulinic acid followed by irradiation with blue light at 2.5 J.cm^-2 energy level for 5 mins and measured after 18 hrs by MTT assay; format: functional, cell-based; conditions: light or radiation study
[2] = test system: MCF7; assay: Cytotoxicity against human MCF7 cells assessed as reduction in cell viability preincubated for 4 hrs under dark condition in presence of 5-aminolevulinic acid followed by irradiation with blue light at 2.5 J.cm^-2 energy level for 5 mins and measured after 18 hrs by MTT assay; format: functional, cell-based; conditions: MCF7, light or radiation study
[3] = test system: A-375; assay: Cytotoxicity against human A-375 cells assessed as reduction in cell viability preincubated for 4 hrs under dark condition in presence of 5-aminolevulinic acid followed by irradiation with blue light at 2.5 J.cm^-2 energy level for 5 mins and measured after 18 hrs by MTT assay; format: functional, cell-based; conditions: A-375, light or radiation study
[4] = test system: A-375; assay: Cytotoxicity against human A-375 cells assessed as reduction in cell viability preincubated for 4 hrs under dark condition followed by irradiation with blue light at 2.5 J.cm^-2 energy level for 5 mins and measured after 18 hrs by MTT assay; format: functional, cell-based; conditions: A-375, light or radiation study
[5] = (§1) Prodrug release in human Hela cells assessed as 3-[(1Z,4Z,9Z,15Z)-7-(2-carboxyethyl)-3,8,12,17-tetramethyl-13,18-divinyl-21,23-dihydroporphyrin-2-yl]propanoic acid release by measuring increase in fluorescence intensity at 20 to 80 uM by microplate reader analysis; format: ADME, cell-based; conditions: dose 20-80 µM
[6] = test system: A-375; assay: Cytotoxicity against human A-375 cells assessed as reduction in cell viability at 100 uM incubated for 4 hrs under dark condition by MTT assay; format: functional, cell-based
[7] = as §1, with “MCF7” for “Hela”, “measuring fold” for “measuring”, “analysis relative to 5-Aminolevulinic acid” for “analysis”; format: ADME, cell-based; conditions: mcf7, 80 µM, dose 20-80 µM
[8] = (§2) Prodrug release in human A-375 cells assessed as 3-[(1Z,4Z,9Z,15Z)-7-(2-carboxyethyl)-3,8,12,17-tetramethyl-13,18-divinyl-21,23-dihydroporphyrin-2-yl]propanoic acid release by measuring increase in fluorescence intensity at 20 to 80 uM by microplate reader analysis; format: ADME, cell-based; conditions: a-375, 80 µM, dose 20-80 µM
[9] = Drug metabolism assessed as esterase (unknown origin) mediated hydrolysis by measuring hydroxypyridinone formation; format: ADME; conditions: human
[10] = test system: MCF7; assay: Cytotoxicity against human MCF7 cells assessed as reduction in cell viability at 100 uM incubated for 4 hrs under dark condition by MTT assay; format: functional, cell-based
[11] = test system: HeLa; assay: Cytotoxicity against human HeLa cells assessed as reduction in cell viability preincubated for 4 hrs under dark condition followed by irradiation with blue light at 2.5 J.cm^-2 energy level for 5 mins and measured after 18 hrs by MTT assay; format: functional, cell-based; conditions: light or radiation study
[12] = test system: HeLa; assay: Cytotoxicity against human HeLa cells assessed as reduction in cell viability at 100 uM incubated for 4 hrs under dark condition by MTT assay; format: functional, cell-based
[13] = as §2, with “measuring fold” for “measuring”, “analysis relative to 5-Aminolevulinic acid” for “analysis”; format: ADME, cell-based; conditions: a-375, 80 µM, dose 20-80 µM
[14] = as §1, with “measuring fold” for “measuring”, “analysis relative to 5-Aminolevulinic acid” for “analysis”; format: ADME, cell-based; conditions: dose 20-80 µM
[15] = test system: MCF7; assay: Cytotoxicity against human MCF7 cells assessed as reduction in cell viability preincubated for 4 hrs under dark condition followed by irradiation with blue light at 2.5 J.cm^-2 energy level for 5 mins and measured after 18 hrs by MTT assay; format: functional, cell-based; conditions: MCF7, light or radiation study
[16] = Prodrug release in human MCF7 cells assessed as 3-[(1Z,4Z,9Z,15Z)-7-(2-carboxyethyl)-3,8,12,17-tetramethyl-13,18-divinyl-21,23-dihydroporphyrin-2-yl]propanoic acid release by measuring increase in fluorescence intensity at 20 to 80 uM by microplate reader analysis; format: ADME, cell-based; conditions: mcf7, 80 µM, dose 20-80 µM
[17] = Drug metabolism assessed as esterase (unknown origin) mediated hydrolysis by measuring 5-Aminolevulinic acid formation; format: ADME; conditions: human

| Drug metabolism [5] | fold change (FC) [7] | Drug metabolism [8] | Drug metabolism [9] | fold change (FC) [13] | fold change (FC) [14] | Drug metabolism [16] | Drug metabolism [17] | Compound | IC50 [1] | IC50 [2] | IC50 [3] | IC50 [4] | Activity [6] | Activity [10] | IC50 [11] | Activity [12] | IC50 [15] |
| --- | --- | --- | --- | --- | --- | --- | --- | --- | --- | --- | --- | --- | --- | --- | --- | --- | --- |
|  |  |  |  |  |  |  |  | Cc1c(O)c(=O)ccn1C [DEFERIPRONE] | 61.8 µM | 65 µM | 27.2 µM |  |  |  |  |  |  |
| Metabolite_Detected | 5.3 | Metabolite_Detected | Metabolite_Detected | 2.8 | 18.9 | Metabolite_Detected | Metabolite_Detected | CCCCCCn1c(C)cc(=O)c(O)c1COC(=O)CCC(=O)CN.Cl |  |  |  | 28 µM | inactive | inactive | 24.2 µM | inactive | 43.3 µM |
